In US8765409B2, “Efficient production of heterologous proteins using mannosyl transferase inhibitors” (Merck Sharp & Dohme Corp., priority 2008, dated 2014):

Assays:
[1] = test system: O-glycosylation of human anti-Her2 antibody in Pichia pastoris strain yGLY4280 (Pmt-mediated); assay: O-glycan occupancy of secreted anti-Her2 antibody (Dionex HPAEC-PAD) from shake-flask cultures treated with Pmt inhibitor; format: cell-based; conditions: inhibitor 0.15 ug/mL added at induction; 24 hr in induction media; protein A purified anti-Her2; no inhibitor >14.0
Description: Anti-Her2 protein expression for strain yGLY4280 was carried out in shake flasks at 24° C. with buffered glycerol-complex medium (BMGY) consisting of 1% yeast extract, 2% peptone, 100 mM potassium phosphate buffer pH 6.0, 1.34% yeast nitrogen base, 4×10-5% biotin, and 1% glycerol. The induction medium for protein expression was buffered methanol-complex medium (BMMY) consisting of 1% methanol instead of glycerol in BMGY. Pmt inhibitors in 100% methanol were added to the growth medium to a final concentration of 0.15 ug/mL at the time the induction medium was added. This is an intermediate dose that is sufficient to reduce O-glycosylation to roughly 50% of that observed without Pmt inhibitor treatment, and thus allows a comparison of potency for the different inhibitors. Following 24 hr further growth in the induction media, cultures were harvested and centrifuged at 2,000 rpm for five minutes to remove cells from the supernatant.
O-glycan determination was performed using a Dionex-HPLC(HPAEC-PAD) as follows. To measure O-glycosylation reduction, protein was purified from the growth medium using protein A chromatography (Li et al. Nat. Biotechnol. 24(2):210-5 (2006)) and the O-glycans released from and separated from protein by alkaline elimination (beta-elimination) (Harvey, Mass Spectrometry Reviews 18: 349-451 (1999)). This process also reduces the newly formed reducing terminus of the released O-glycan (either oligomannose or mannose) to mannitol. The mannitol group thus serves as a unique indicator of each O— glycan. 0.5 nmole or more of protein, contained within a volume of 100 μL PBS buffer, was required for beta elimination. The sample was treated with 25 μL alkaline borohydride reagent and incubated at 50° C. for 16 hours. About 20 uL arabitol internal standard was added, followed by 10 μL glacial acetic acid. The sample was then centrifuged through a Millipore filter containing both SEPABEADS and AG 50W-X8 resin and washed with water. The samples, including wash, were transferred to plastic autosampler vials and evaporated to dryness in a centrifugal evaporator. 150 μL 1% AcOH/MeOH was added to the samples and the samples evaporated to dryness in a centrifugal evaporator. This last step was repeated five more times. 200 μL of water was added and 100 μL of the sample was analyzed by high pH anion-exchange chromatography coupled with pulsed electrochemical detection-Dionex HPLC(HPAEC-PAD). Average O-glycan occupancy was determined based upon the amount of mannitol recovered.

[2] = test system: O-glycosylation of anti-Her2 heavy chain (Hc) in Pichia pastoris strain yGLY4280; assay: Western blot of anti-Her2 heavy chain O-glycosylation with 2-fold dilutions of Pmt inhibitor in 96-well plates (FIG. 1); format: cell-based; conditions: 2-fold dilutions 5 to 0.009 ug/mL, 24 hours; for concentration as low as which O-glycosylation of anti-Her2 Hc was effectively reduced: Western blot
Description: FIG. 1 illustrates the effect of Pmt inhibitors including the novel inhibitor shown as Example 4 on O-glycosylation of secreted recombinant monoclonal antibody in Pichia pastoris. […] Western blotting using an anti-human H+L antibody was used to detect heavy (Hc) and light (Lc) chains in the growth media of strains treated with increasing amounts of Pmt inhibitor (higher doses in left lanes). The slowest migrating band (marked with asterisk) indicates the O-glycosylated Hc which is eliminated by Pmt inhibitor treatment. […] Strain yGLY4280 was inoculated into 96-well deep well plates (Qiagen, Valencia, Calif.) containing 0.5 ml of BMGY media per well. After 24 hours growth with vigorous shaking, the 96-well plate was centrifuged at 2,000 rpm for five minutes to pellet cells. The media was removed and, following a wash step with 0.5 mL of BMMY media, the cells resuspended in 0.2 mL BMMY media in which Pmt inhibitors were diluted 2-fold across the rows (11 wells). Well #1 contained 5 ug/mL of inhibitor, well #2 contained 2.5 ug/mL and so on until well #10 contained 0.009 ug/mL; well #11 contained no inhibitor. After an additional 24 hours growth with vigorous shaking, the plate was centrifuged at 2,000 rpm for five minutes to pellet cells, and the cleared supernatant subjected to Western blot analysis to detect anti-Her2 expression. The Western blotting was performed as follows: seven μL of the supernatants were separated by reducing polyacrylamide gel electrophoresis (SDS-PAGE) according to Laemmli, U. K. (1970) Nature 227, 680-685 and then electroblotted onto nitrocellulose membranes (Schleicher & Schuell, now Whatman, Inc., Florham Park, N.J.). Anti-Her2 antibody chains were detected on the Western blots using a peroxidase-conjugated anti-human Hc and Lc antibody (Calbiochem/EMD Biosciences, La Jolla, Calif.) and developed using the ImmunoPure Metal Enhanced DAB Substrate Kit (Pierce Biotechnology, Rockford, Ill.).

Row | Structure (SMILES) | O-glycan occupancy (moles O-mannose/moles Ab) [1] | effect on O-glycosylation of anti-Her2 Hc (Western blot, in words) ([2]; FIG. 1) | concentration as low as which O-glycosylation of anti-Her2 Hc was effectively reduced [2]
1 | COCC(COC)(Oc1cc(/C=C2/SC(=S)N(CC(=O)O)C2=O)ccc1OCCc1ccc(F)cc1)c1ccccc1 [Example 1] | 4.1 moles O-mannose/moles Ab |  | 
2 | O=C(O)CN1C(=O)/C(=C/c2ccc(OCCc3ccc(F)cc3)c(OC(c3ccccc3)c3ccccc3)c2)SC1=S [Example 2] | 4.3 moles O-mannose/moles Ab |  | 
3 | O=C(O)CN1C(=O)/C(=C/c2ccc(OCCc3ccc(F)cc3)c(OC(c3ccccc3)C3CCCCC3)c2)SC1=S (centres unmarked) [Example 3] | 5.5 moles O-mannose/moles Ab |  | 
4 | CC(C)COCC(Oc1cc(/C=C2\SC(=S)N(CC(=O)O)C2=O)ccc1OCCc1ccc(F)cc1)c1ccccc1 (centres unmarked) [Example 4] | 5.2 moles O-mannose/moles Ab | reduced O-glycosylation in a dose-dependent fashion | 0.018 µg/mL
5 | O=C(O)CN1C(=O)/C(=C/c2ccc(OCCc3ccccc3)c(OC(CO)c3ccccc3)c2)SC1=S (centres unmarked) [Pmti-3, reference compound] | 8.1 moles O-mannose/moles Ab |  | 0.018 µg/mL
